According to patent US10815276B2, “Cell penetrating peptides and methods of making and using thereof” (Entrada Therapeutics, Inc., priority 2014, dated 2020):
Starred links: 1 amine or outer side, 2 acyl side, 3 side chain; linkers in the order of their positions; H or OH if unused. Positions of bridges follow the written chain, without caps; N, C: chain ends. Non-standard residues stand in square brackets, D forms with d. Residues, ends and D or L forms follow the SMILES beside them. Trimesoyl = O=C(c1cc(C(=O)[*:2])cc(C(=O)[*:3])c1)[*:1]; F2Pmp = N[C@@H](Cc1ccc(C(F)(F)P(=O)(O)O)cc1)C(=O)O; 2Nal = N[C@@H](Cc1ccc2ccccc2c1)C(=O)O; Phg = N[C@H](C(=O)O)c1ccccc1; Pip = O=C(O)[C@@H]1CCCCN1; Dap = NC[C@H](N)C(=O)O

Tests used:
HePTP = HePTP (Homo sapiens, UniProt P35236); assay: PTP inhibition assay (pNPP); assay type: biochemical; conditions: 1 μM inhibitor
Protocol: (§1) PTP assays were performed in a quartz microcuvette (total volume 150 μL). The reaction mixture contains 100 mM Tris-HCl, pH 7.4, 50 mM NaCl, 2 mM EDTA, 1 mM TCEP, 0-1 μM of PTP inhibitor, and 500 μM para-nitrophenyl phosphate (pNPP). The enzymatic reaction was initiated by the addition of PTP (final concentration 15-75 nM) and monitored continuously at 405 nm on a UV-VIS spectrophotometer. Initial rates were calculated from the reaction progress curves (typically <60 s). The half-maximal inhibition constant (IC50) was defined as the concentration of an inhibitor that reduced the enzyme activity to 50% and was obtained by plotting the rates (V) against the inhibitor concentration [I] and fitting the data against the equation

PTPH1 = PTPH1 (Homo sapiens, UniProt P26045); assay: PTP inhibition assay (pNPP); assay type: biochemical; conditions: 1 μM inhibitor
Protocol: as §1

PTPRC = PTPRC (Homo sapiens, UniProt P08575); assay: PTP inhibition assay (pNPP); assay type: biochemical; conditions: 1 μM inhibitor
Protocol: as §1

PTPRO = PTPRO (Homo sapiens, UniProt Q16827); assay: PTP inhibition assay (pNPP); assay type: biochemical; conditions: 1 μM inhibitor
Protocol: as §1

SHP1 = SHP1 (Homo sapiens, UniProt P29350); assay: PTP inhibition assay (pNPP); assay type: biochemical; conditions: 1 μM inhibitor; read-out: Inhibition of SHP-1
Protocol: as §1

[1] = Serum stability test (human serum); assay type: in vitro ADME; conditions: 25% human serum (supernatant after centrifugation), 24 h at 37° C., read-out: Degradation in human serum
Protocol: The stability tests were carried by modifying a previously reported procedure (Nguyen, L T et al. PLoS One 2010, 5, e12684). Diluted human serum (25%) was centrifuged at 15,000 rpm for 10 min, and the supernatant was collected. A peptide stock solution was diluted into the supernatant to a final concentration of 5 μM and incubated at 37° C. At various time points (0-24 h), 200-μL aliquots were withdrawn and mixed with 50 μL of 15% trichloroacetic acid and incubated at 4° C. overnight. The final mixture was centrifuged at 15,000 rpm for 10 min in a microcentrifuge, and the supernatant was analyzed by reversed-phase HPLC equipped with a C18 column. The amount of remaining peptide (%) was determined by integrating the area underneath the peptide peak (monitored at 214 nm) and comparing with that of the control reaction (no serum).

PTP1B = target: T1, PTP1B (Homo sapiens, UniProt P18031); assay: PTP inhibition assay (pNPP); assay type: biochemical; conditions: monocyclic peptide inhibitors
T1 construct: The gene coding for the catalytic domain of PTP1B (amino acids 1-321) was amplified; made in house; host or cells: prokaryotic vector pET-22b(+)-ybbR
Protocol: as §1
[formula] where V0 is the enzymatic reaction rate in the absence of inhibitor. […] The reaction rate (V) was plotted against the pNPP concentration ([S]) and fitted against the equation
[formula] to obtain the Michaelis constant K. The Ki value was obtained by plotting the K values against the inhibitor concentration [I] and fitted to equation
[formula] where K0 is the Michaelis constant in the absence of inhibitor ([I]=0).

A549 lung cancer cells = assay: Live-cell confocal microscopy of FITC-labeled PTP1B inhibitors; assay type: cell-based, human; conditions: 5 μM FITC-labeled inhibitor, 2 h
Protocol: Approximately 5×10^4 A549 cells were seeded in 35-mm glass-bottomed microwell dish (MatTek) containing 1 mL of media and cultured for one day. A549 cells were gently washed with DPBS once and treated with the FITC-labeled PTP1B inhibitors (5 μM), dextran^Rho (1 mg mL^−1) in growth media for 2 h at 37° C. in the presence of 5% CO2. The peptide-containing media was removed and the cells were washed with DPBS three times and incubated for 10 min in 1 mL of DPBS containing 5 μM DRAQS. The cells were again washed with DPBS twice. Then the cells were imaged on a Visitech Infinity 3 Hawk 2D-array live cell imaging confocal microscope (with a 60× oil immersion lens) at 37° C. in the presence of 5% CO2. Live-cell confocal microscopic imaging of HEK293 cells after treatment with FITC-labeled Pin1 inhibitors were similarly conducted.

HeLa cells [2] = assay: MTT proliferation assay with Pin1 inhibitors; assay type: cell-based, human; conditions: MTT
Protocol: HeLa cells (100 μL/each well, 5×10^4 cells/mL) were seeded in a 96-well culture plate and allowed to grow overnight in DMEM supplemented with 10% FBS. […] After that, 10 μL of a MTT stock solution (5 mg/mL) was added into each well. The plate was incubated at 37° C. for 4 h and 100 μL of SDS-HCl solubilizing solution was added into each well, followed by thorough mixing. The plate was incubated at 37° C. overnight and the absorbance of the formazan product was measured at 570 nm on a Molecular Devices Spectramax M5 plate reader. Each experiment was performed in triplicates and the cells untreated with peptide were used as control.

CAL-PDZ domain = CAL-PDZ domain (Homo sapiens, UniProt Q9HD26); assay: Fluorescence anisotropy binding to CAL-PDZ; conditions: absence of a reducing agent
Protocol: The full fluorescence anisotropy (FA) titration experiment was performed by incubating 100 nM fluorophore-labeled peptidyl ligands with varying concentrations (0-6 μM) of CAL-PDZ (Cushing, P R et al. […] The FA values were measured on a Molecular Devices Spectramax M5 spectrofluorimeter, with excitation and emission wavelengths at 485 nm and 525 nm, respectively. Equilibrium dissociation constants (KD) were determined by plotting the fluorescence anisotropy values as a function of CAL-PDZ concentration. The titration curves were fitted to the following equation, which assumes a 1:1 binding stoichiometry
where Y is the measured anisotropy at a given CAL-PDZ concentration x; L is the bicyclic peptide concentration; Qb/Qf is the correction fact for dye-protein interaction; Amax is the maximum anisotropy when all the peptides are bound to CAP-PDZ, while Amin is the minimum anisotropy when all the peptides are free.

ΔF508-CFTR CFBE cells = assay: SPQ intracellular chloride concentration assay; assay type: cell-based; conditions: 20 μM VX809 and 50 μM peptide 8
Protocol: A SPQ (6-Methoxy-N-(3-sulfopropyl)quinolinium) assay was utilized to estimate the transport activity of ΔF508-CFTR activity in CFBE cells, as the fluorescence of SPQ is negatively correlated with increasing concentration of intracellular chloride (Illsley, N P and Verkman, A S. Biochemistry 1987, 26, 1215). CFBE cells were grown on 96-well plate, which was pre-coated with 1 mg/ml human fibronectin, 3 mg/ml collagen I bovine, and 1 mg/ml bovine serum albumin, using DMEM media supplemented with L-glutamine and 10% FBS. […] Cells were then loaded with SPQ using hypotonic shock at 37° C. for 15 min with 10 mM SPQ containing 1:1 (v/v) Opti-MEM/water solution. The cells were then washed and incubated twice for 10 min with fluorescence quenching NaI buffer (130 mM NaI, 5 mM KNO3, 2.5 mM Ca(NO3)2, 2.5 mM Mg(NO3)2, 10 mM D-glucose, 10 mM N-(2-hydroxyethyl) piperazine-N′-(2-ethanesulfonic) acid (HEPES, pH 7.4)). […] Fluorescence non-specific to CFTR-mediated iodide efflux was measured by incubating the cells with the activation cocktail and the CFTR specific inhibitor GlyH101 (10 μM). The effects of CAL-PDZ inhibitors were evaluated by the fluorescence increasing rate above the basal level. The fluorescence of dequenched SPQ was measured using the plate reader VICTOR X3 (Perkin Elmer) with excitation wavelength at 350 nm and DAPI emission filter. […]

[3] = tested on: Bronchial epithelial CFBE cells; assay: Immunofluorescent staining of ΔF508-CFTR; assay type: cell-based; conditions: 10 μM Corr-4a and 50 μM unlabeled peptide 8
Protocol: After the treatments, cells were fixed in cold methanol for 20 min. The slides were then incubated in 1% BSA/PBS for 10 min, followed by incubation at 37° C. for 1 h with mouse anti-human monoclonal CFTR antibody (R&D Systems). Thereafter, the slides were incubated at 37° C. for 45 min with Alexa Fluor® 488-conjugated anti-mouse IgG2a secondary antibody. Cells were visualized on a Leica TCS SP2 AOBS confocal laser scanning microscope. All measurements were conducted in a double-blinded manner by two independent investigators.

HeLa cells [4] = assay: Live-cell confocal microscopy of FITC-labeled peptides; assay type: cell-based, human; conditions: 5 μM
Protocol: To detect peptide internalization, 1 mL of HeLa cell suspension (5×10^4 cells) was seeded in a 35 mm glass-bottomed microwell dish (MatTek) and cultured overnight. Cells were gently washed with DPBS twice and treated with FITC labeled peptides (5 μM) and dextran^Rho (0.5 mg mL^−1) in phenol-red free DMEM containing 1% serum at 37° C. for 1 h in the presence of 5% CO2. After removal of the medium, the cells were gently washed with DPBS twice and incubated with 5 μM DRAQS in DPBS for 10 min. The cells were again washed with DPBS twice and imaged on a Visitech Infinity 3 Hawk 2D-array live cell imaging confocal microscope. Images were captured under the same parameters and adjusted under the same setting using MetaMorph (Molecular Devices).

SHP1, sequence (P29350 whole entry): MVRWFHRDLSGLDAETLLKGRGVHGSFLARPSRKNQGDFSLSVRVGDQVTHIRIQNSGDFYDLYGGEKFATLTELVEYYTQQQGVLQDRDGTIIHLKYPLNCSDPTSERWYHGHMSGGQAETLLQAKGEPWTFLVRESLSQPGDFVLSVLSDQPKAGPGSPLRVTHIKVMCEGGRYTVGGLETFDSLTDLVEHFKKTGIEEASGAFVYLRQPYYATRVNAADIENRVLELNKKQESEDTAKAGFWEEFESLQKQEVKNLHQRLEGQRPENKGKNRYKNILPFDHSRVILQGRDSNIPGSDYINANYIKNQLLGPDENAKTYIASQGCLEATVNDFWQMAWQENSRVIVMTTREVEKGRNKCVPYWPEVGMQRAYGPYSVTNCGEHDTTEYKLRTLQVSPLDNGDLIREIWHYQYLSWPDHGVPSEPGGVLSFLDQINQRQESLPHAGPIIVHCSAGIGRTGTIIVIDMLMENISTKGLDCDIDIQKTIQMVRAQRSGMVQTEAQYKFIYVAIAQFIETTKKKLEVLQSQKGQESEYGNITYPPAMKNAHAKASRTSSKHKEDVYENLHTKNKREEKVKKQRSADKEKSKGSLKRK
T1 sequence (P18031 1-321): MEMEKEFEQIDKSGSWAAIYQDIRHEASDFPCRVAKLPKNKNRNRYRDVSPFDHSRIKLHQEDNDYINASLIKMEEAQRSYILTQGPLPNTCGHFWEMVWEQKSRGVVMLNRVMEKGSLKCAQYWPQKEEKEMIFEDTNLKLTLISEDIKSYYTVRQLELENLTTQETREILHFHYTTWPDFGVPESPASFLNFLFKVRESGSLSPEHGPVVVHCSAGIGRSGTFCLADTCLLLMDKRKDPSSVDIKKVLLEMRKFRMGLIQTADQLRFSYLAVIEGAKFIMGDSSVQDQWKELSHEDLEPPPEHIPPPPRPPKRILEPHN
PTPH1, sequence (P26045 whole entry, species assumed): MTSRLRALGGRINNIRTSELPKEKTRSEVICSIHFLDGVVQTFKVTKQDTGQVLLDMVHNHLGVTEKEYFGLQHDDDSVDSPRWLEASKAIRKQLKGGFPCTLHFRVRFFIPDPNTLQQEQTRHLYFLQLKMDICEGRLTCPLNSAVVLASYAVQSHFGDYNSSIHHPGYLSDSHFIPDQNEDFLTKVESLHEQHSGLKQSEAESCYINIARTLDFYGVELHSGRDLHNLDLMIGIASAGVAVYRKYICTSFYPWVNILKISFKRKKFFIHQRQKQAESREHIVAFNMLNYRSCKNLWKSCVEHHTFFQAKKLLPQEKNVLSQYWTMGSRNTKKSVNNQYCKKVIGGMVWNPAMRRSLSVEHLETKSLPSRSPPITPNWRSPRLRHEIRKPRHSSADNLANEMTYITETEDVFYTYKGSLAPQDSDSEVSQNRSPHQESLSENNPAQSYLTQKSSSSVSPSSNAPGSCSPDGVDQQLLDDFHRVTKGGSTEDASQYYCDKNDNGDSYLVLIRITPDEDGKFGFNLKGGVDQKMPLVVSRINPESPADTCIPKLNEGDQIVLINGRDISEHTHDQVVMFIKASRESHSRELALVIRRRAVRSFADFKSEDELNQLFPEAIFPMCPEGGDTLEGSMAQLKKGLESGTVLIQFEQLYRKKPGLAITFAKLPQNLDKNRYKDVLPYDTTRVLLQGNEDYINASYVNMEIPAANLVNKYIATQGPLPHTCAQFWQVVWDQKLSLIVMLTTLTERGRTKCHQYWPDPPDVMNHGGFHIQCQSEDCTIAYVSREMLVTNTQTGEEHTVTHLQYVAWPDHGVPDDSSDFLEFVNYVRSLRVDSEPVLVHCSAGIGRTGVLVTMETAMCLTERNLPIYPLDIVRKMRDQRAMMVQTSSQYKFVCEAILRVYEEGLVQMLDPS
PTPRC, sequence (P08575 26-1306, species assumed): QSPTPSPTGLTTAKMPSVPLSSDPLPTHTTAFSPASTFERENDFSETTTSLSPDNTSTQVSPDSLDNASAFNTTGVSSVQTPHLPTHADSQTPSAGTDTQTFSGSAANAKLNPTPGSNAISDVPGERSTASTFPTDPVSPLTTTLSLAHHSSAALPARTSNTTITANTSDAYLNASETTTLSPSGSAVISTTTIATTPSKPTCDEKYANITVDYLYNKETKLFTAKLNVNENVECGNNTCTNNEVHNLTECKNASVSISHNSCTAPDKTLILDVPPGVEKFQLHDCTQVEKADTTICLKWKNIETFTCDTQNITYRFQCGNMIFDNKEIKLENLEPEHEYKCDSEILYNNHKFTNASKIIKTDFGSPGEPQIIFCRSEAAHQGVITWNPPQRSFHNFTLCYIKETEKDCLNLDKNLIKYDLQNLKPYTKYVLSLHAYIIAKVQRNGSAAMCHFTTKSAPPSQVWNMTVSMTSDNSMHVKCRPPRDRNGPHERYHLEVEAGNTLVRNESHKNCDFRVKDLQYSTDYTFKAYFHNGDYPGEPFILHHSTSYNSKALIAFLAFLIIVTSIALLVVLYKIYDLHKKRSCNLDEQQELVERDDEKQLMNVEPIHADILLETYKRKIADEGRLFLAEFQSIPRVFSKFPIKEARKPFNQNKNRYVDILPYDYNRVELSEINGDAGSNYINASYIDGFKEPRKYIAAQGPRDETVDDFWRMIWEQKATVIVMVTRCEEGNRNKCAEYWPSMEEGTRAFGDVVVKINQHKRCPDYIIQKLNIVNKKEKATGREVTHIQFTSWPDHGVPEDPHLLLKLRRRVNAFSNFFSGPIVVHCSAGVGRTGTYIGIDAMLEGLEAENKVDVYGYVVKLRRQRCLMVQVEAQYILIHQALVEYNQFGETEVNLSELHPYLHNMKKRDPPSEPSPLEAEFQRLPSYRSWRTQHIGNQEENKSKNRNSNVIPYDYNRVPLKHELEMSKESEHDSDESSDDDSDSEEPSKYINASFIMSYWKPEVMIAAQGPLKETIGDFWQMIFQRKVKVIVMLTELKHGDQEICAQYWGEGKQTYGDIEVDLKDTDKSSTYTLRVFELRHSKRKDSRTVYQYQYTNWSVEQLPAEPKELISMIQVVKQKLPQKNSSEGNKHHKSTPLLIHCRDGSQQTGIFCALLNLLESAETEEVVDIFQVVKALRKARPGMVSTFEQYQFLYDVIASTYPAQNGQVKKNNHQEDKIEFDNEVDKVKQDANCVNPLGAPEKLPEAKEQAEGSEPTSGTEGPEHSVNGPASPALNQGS
PTPRO, sequence (Q16827 30-1216): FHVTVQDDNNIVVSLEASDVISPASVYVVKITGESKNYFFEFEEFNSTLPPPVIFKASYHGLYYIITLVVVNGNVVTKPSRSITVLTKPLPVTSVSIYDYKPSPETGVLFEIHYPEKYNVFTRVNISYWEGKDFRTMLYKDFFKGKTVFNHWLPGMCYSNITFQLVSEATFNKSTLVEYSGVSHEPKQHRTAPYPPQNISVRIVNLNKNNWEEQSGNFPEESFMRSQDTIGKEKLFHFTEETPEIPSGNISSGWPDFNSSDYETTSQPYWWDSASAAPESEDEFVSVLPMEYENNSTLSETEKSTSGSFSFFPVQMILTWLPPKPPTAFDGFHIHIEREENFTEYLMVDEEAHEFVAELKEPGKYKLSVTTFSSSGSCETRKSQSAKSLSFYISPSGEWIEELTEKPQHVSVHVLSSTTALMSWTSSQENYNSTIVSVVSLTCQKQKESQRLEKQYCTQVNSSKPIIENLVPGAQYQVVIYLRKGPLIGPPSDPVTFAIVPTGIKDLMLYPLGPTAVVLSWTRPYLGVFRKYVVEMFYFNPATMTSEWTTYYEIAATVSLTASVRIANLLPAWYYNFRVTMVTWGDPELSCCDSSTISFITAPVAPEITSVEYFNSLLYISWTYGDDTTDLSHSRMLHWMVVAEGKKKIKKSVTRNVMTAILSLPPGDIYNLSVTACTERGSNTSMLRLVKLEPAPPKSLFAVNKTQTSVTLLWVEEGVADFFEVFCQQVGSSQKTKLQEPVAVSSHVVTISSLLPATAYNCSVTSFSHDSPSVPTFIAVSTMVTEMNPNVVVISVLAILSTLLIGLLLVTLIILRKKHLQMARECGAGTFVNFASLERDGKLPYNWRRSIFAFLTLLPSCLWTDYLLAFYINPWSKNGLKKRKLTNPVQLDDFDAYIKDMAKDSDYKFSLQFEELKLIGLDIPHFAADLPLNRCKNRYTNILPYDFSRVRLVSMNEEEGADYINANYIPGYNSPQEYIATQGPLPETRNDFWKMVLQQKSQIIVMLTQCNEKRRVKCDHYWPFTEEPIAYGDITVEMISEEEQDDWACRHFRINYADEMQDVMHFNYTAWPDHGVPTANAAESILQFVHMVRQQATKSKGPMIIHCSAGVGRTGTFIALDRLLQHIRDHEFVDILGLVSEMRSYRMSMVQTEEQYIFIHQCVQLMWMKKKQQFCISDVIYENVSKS
HePTP, sequence (P35236 whole entry, species assumed): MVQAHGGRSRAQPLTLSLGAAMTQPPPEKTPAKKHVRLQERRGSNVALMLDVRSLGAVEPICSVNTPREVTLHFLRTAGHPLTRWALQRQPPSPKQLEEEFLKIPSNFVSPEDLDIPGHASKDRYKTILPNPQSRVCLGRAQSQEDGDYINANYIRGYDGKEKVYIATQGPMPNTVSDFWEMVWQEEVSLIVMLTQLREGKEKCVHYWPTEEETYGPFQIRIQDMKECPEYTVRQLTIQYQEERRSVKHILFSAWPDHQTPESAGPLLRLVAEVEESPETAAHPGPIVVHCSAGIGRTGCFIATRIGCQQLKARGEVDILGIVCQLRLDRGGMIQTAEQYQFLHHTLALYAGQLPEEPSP

In the case of `CC(C)[C@H]1NC(=O)[C@H](CO)NC(=O)c2cc3cc(c2)C(=O)NC[C@H](NC(=O)[C@H](Cc2c[nH]cn2)NC(=O)[C@H](Cc2ccc(C(F)(F)P(=O)(O)O)cc2)NC(=O)[C@@H]2CCCN2C1=O)C(=O)N[C@@H](CCCNC(=N)N)C(=O)N[C@@H](CCCNC(=N)N)C(=O)N[C@@H](CCCNC(=N)N)C(=O)N[C@@H](CCCNC(=N)N)C(=O)N[C@@H](Cc1ccc2ccccc2c1)C(=O)N[C@@H](Cc1ccccc1)C(=O)N[C@H](C(=O)N[C@@H](CCCCN)C(N)=O)CNC3=O` [Bicyclic Inhibitor 4] (S[dV]P[F2Pmp]H[Dap]RRRR[2Nal]F[Dap]K-NH2; linker N-6-13 via Trimesoyl; C-terminus assumed), the inhibition at 1 µM (HePTP) is reported as less than 10%, the inhibition at 1 µM (PTPH1) is reported as less than 10% and the inhibition at 1 µM (PTPRC) is reported as less than 10%. The inhibition at 1 µM (PTPRO) was less than 10%, the inhibition at 1 µM (SHP1) was less than 10% and the metabolised at 24 h, 5 μM [1] was roughly 10%.

In the case of `CC(C)[C@H]1NC(=O)[C@H](CO)NC(=O)[C@H](CCC(N)=O)NC(=O)[C@H](Cc2ccccc2)NC(=O)[C@H](Cc2ccc3ccccc3c2)NC(=O)[C@H](CCCNC(=N)N)NC(=O)[C@H](CCCNC(=N)N)NC(=O)[C@H](CCCNC(=N)N)NC(=O)[C@H](CCCNC(=N)N)NC(=O)[C@H](Cc2c[nH]cn2)NC(=O)[C@H](Cc2ccc(C(F)(F)P(=O)(O)O)cc2)NC(=O)[C@@H]2CCCN2C1=O` [Monocyclic Inhibitor 2, cyclo(Ser-D-Val-Pro-F2Pmp-His-Arg-Arg-Arg-Arg-Nal-Phe-Gln)] (cyclo(S[dV]P[F2Pmp]HRRRR[2Nal]FQ)), the IC50 (PTP1B) is reported as roughly 30 nM and the “Cellular uptake (confocal)” value (A549 lung cancer cells) is reported as “poor cellular uptake”.

With `C[C@@H]1NC(=O)[C@H](CCCNC(=N)N)NC(=O)[C@H](Cc2ccc3ccccc3c2)NC(=O)[C@@H]2CCCCN2C(=O)[C@@H]([C@H](C)O)NC(=O)[C@H](c2ccccc2)NC(=O)[C@H](Cc2c[nH]cn2)NC(=O)c2cc3cc(c2)C(=O)NC[C@H](NC(=O)[C@@H](C)NC1=O)C(=O)N[C@@H](Cc1ccccc1)C(=O)N[C@@H](Cc1ccc2ccccc2c1)C(=O)N[C@@H](CCCNC(=N)N)C(=O)N[C@@H](CCCNC(=N)N)C(=O)N[C@@H](CCCNC(=N)N)C(=O)N[C@@H](CCCNC(=N)N)C(=O)N[C@H](C(=O)N[C@@H](CCCCN)C(N)=O)CNC3=O` [Peptide 8, bicyclo[Tm-(His-Phg-D-Thr-Pip-Nal-Arg-Ala-D-Ala)-Dap-(Phe-Nal-Arg-Arg-Arg-Arg-Dap)]-Lys] (H[Phg][dT][Pip][2Nal]RA[dA][Dap]F[2Nal]RRRR[Dap]K-NH2; linker N-9-16 via Trimesoyl; C-terminus assumed) the “Effect on cell growth” value (HeLa cells [2]) was “inhibited cell growth, but to a lesser extent than inhibitor 7”, the “Binding to CAL-PDZ domain” value (CAL-PDZ domain) was “no detectable binding” and the “Ion channel activity of ΔF508-CFTR” value (ΔF508-CFTR CFBE cells) was “acted synergistically”. The “ΔF508-CFTR at the cell surface” value [3] was “much greater amounts of the protein at the cell surface” and the “Intracellular FITC fluorescence (confocal)” value (HeLa cells [4]) was “intense and diffuse fluorescence throughout the entire cell”.
